Columns and labels:
[1] = tested on: PAF-stimulated PMN locomotion in the rat mesentery; assay: Intravital time lapse videomicroscopy of PMN locomotion in rat mesentery in vivo; conditions: PAF 10^-7 M
Experimental: Intravital time lapse videomicroscopy of PMN locomotion in vivo. PMN locomotion in rat mesenteric tissue was studied through use of intravital time lapse videomicroscopy according to the protocol previously described in detail (Werr et al., supra). In brief, Wistar rats (200-250 g) were anesthetized with equal parts of fluanison/fentanyl (10/0.2 mg/ml; Hypnorm; Janssen-Cilag Ltd., Saunderton, UK) and midazolam (5 mg/ml; Dormicum; Hoffman-La Roche, Basel, Switzerland) diluted 1:1 with sterile water (2 ml/kg i.m.). Body temperature was maintained at 37° C. by a heating pad connected to a rectal thermistor. After laparotomy, a segment of the ileum was exposed on a heated transparent pedestal to allow microscopic observation of the mesenteric microvasculature (Orthoplan microscope equipped with water immersion lens SW×25, NA 0.60; Leitz, Wetzlar, Germany). The microscopic image was televised and recorded on time lapse video (at 1/7 of normal speed). Analysis of leukocyte migration in the mesenteric tissue was made off line and the migration path of individual leukocytes was tracked with a digital image analyzer.
Leukocyte extravasation and migration was induced by soaking the exposed mesentery with 5 ml bicarbonate buffer solution (37° C.) containing PAF at a concentration of 10^−7 M. The tissue was then covered with a transparent plastic film to provide continues chemotactic stimulation by PAF. After 40 min of chemotactic stimulation, when numerous leukocytes had extravasated, time lapse recording of leukocyte migration was undertaken, first for 20 min to assess basal migration rates in response to PAF stimulation, and then for additional 40 min in the presence of PAF together with antibodies or peptides. The antibody concentration in the mixture administered to the tissue was for all antibodies 100 μg/ml. The peptide DGEA was similarly administered at a concentration of 25 mM and SLIDIP/RGDGW at a concentration of 500 μM. Due to dilution of the reagent in fluid covering the tissue these seemingly high doses, ˜10 times the documented effective blocking dose, were chosen in order to reach a sufficient concentration in proximity of the migrating leukocytes in the tissue. […] As previously documented, more than 85% of the migrating cells were neutrophils (Werr et al., supra).

[2] = tested on: fMLP-stimulated human PMN locomotion in collagen (type I) gels; assay: PMN migration in gels of collagen (type I); type: cell-based; conditions: fMLP 10^-7 M; DGEA 5 mM; 30 min at 37° C.
Experimental: PMN migration in gels of collagen (type I) and gelatin. Gels were formed in 24-well culture dishes (250 μl/well) by mixing 8.5 volumes of rat collagen solution or bovine gelatin solution (Sigma) at a concentration of 1.5 mg/ml with 1 volume of ×10 MEM (Life Technologies, Gaithersburg, Md.) and 0.5 volume of 4.4% NaHCO3 and fMLP (final concentration 10^−7 M). Purified human PMN (0.5×106), suspended in 200 μl of MEM containing 10^−9 fMLP were placed on top of the gels and incubated with or without mAb:s or peptides for 30 min at 37° C. The final concentration was for all mAb:s 20 μg/ml, for DGEA 5 mM and for SLIDIP/RGDGW 100 μM. Four to six experiments were run in duplicate gels for each reagent tested and ten randomly chosen microscopic fields (with a defined area of 0.0625 mm) were analyzed in each gel. The migration of PMN into the gel was analyzed with an Leitz Orthoplan microscope equipped with a water immersion lens (Leitz UO×55W, NA 0.80) by focusing down through the gel. The calibrated micrometer scale in the fine focus adjustment was used to determine the migration distance of individual PMN from the upper gel surface. The average migration distance of the three leading cells in each field was calculated and defined as the migration distance of the leading front.

[3] = ten-fold higher concentrations of SLIDIP/RGDGW in some experiments

Substance	effect on PMN migration (in words) [1, 3]	effect on PMN migration (in words) ([1]; topical SLIDIP/RGDGW 500 μM)	inhibition of PMN migration velocity ([1]; topical DGEA 25 mM, p<0.001) [%]	migration distance of the leading front in collagen gels (in words) [2]
ACRGDGWMCG	did not yield different effects	without effect		
DGEA			70±10	to the level of non-stimulated cells
SLIDIP	did not yield different effects	without effect		
